Test results from US7981903B2, “2-[2-{phenylamino}-1H-pyrrolo[2,3-D]pyrimidin-4-yl)amino] benzamide derivatives as IGF-1R inhibitors for the treatment of cancer” (GlaxoSmithKline LLC, priority 2007, dated 2011).
Several values for one entry are separate records, joined by “and”; a condition that tells them apart may be missing. Equal values may be shown once.

Assays:
human IR (hIR) = target: T1, human IR (hIR) (Homo sapiens, UniProt P06213); assay: TR-FRET kinase assay of purified hIR; type: biochemical; conditions: activated hIR 0.5 nM, 10 μM ATP, values given as pIC50 category
T1 construct: containing amino acid residues 979-1382 of human IR; made in house; host or cells: Sf9 cells (baculovirus), same process as hIGF1R

ALK = ALK (Homo sapiens, UniProt Q9UM73); assay: ALK enzyme assay (HTRF); type: biochemical; conditions: 0.25 nM ALK, 15.0 μM ATP, values given as pIC50 category
Summary of the method: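 Final compound range 0.00017 to 10 μM (twelve 1:3 dilutions). Kinase reaction with ATP and biotinylated synthetic peptide runs 120 min at 20° C, stopped with EDTA; phosphotyrosine detected by HTRF after 60 min. Inhibition referenced to DMSO (1%) and EDTA (0.1 M) controls, curve-fitted.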

ALK, sequence (Q9UM73 19-1620): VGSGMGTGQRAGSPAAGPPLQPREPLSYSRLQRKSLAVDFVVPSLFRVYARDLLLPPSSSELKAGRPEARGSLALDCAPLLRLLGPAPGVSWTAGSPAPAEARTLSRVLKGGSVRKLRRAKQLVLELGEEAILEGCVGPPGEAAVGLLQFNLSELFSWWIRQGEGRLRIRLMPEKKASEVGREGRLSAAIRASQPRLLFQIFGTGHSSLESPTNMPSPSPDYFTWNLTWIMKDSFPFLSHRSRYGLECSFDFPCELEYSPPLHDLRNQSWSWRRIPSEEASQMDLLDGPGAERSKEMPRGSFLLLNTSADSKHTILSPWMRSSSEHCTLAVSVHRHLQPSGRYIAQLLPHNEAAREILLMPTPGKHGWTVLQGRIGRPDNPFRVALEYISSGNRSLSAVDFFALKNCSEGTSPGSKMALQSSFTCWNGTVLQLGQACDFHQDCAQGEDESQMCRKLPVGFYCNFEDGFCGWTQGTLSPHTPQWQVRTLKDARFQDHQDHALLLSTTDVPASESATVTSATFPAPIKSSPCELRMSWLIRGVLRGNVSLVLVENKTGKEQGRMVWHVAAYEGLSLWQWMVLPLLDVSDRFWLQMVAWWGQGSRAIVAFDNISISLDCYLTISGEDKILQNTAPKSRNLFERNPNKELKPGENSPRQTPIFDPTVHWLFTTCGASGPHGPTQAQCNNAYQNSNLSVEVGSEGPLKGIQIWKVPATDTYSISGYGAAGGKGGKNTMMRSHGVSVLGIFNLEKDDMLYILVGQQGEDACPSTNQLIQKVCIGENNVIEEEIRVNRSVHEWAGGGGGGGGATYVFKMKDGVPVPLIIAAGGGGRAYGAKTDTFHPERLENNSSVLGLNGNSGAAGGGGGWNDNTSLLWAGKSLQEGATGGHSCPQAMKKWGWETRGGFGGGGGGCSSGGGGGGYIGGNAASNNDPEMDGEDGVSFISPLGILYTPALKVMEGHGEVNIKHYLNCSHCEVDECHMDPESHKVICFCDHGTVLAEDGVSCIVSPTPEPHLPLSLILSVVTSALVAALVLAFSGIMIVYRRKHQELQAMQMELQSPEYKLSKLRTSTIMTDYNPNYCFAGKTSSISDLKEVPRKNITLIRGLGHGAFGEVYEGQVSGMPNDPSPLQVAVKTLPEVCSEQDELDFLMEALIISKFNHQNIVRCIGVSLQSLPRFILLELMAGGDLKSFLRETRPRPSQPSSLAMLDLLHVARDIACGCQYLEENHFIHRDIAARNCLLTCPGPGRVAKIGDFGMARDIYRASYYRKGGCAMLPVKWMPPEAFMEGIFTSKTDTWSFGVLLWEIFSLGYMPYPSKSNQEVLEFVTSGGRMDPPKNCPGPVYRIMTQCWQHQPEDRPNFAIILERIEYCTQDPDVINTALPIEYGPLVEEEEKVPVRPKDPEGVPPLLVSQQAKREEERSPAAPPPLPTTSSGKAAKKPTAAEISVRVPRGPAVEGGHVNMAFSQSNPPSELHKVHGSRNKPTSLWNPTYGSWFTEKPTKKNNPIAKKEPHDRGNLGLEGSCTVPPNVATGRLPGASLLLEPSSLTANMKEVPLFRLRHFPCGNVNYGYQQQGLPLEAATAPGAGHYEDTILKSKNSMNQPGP
T1 sequence (P06213 979-1382): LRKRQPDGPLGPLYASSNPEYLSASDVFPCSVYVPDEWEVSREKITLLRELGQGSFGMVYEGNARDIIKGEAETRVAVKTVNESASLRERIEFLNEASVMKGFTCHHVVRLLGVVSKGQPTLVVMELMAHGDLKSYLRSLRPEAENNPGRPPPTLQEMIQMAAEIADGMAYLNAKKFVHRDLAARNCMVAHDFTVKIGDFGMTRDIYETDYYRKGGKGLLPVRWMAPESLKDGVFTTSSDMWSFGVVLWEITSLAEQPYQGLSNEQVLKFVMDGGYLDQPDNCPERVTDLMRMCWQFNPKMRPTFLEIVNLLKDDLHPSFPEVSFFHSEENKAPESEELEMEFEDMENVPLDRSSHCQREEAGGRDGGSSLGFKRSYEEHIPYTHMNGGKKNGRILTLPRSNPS

| IC50 (human IR (hIR)) | IC50 (ALK) [nM] | SMILES |
| --- | --- | --- |
| 1.26 to 3.98 nM | 0.251 to 1 | COc1cc(N2CCN(C(C)C)CC2)ccc1Nc1nc(Nc2cc(Cl)cc(F)c2C(N)=O)c2cc[nH]c2n1 [Example 93, 4-chloro-2-fluoro-6-[(2-{[4-[4-(1-methylethyl)-1-piperazinyl]-2-(methyloxy)phenyl]amino}-1H-pyrrolo[2,3-d]pyrimidin-4-yl)amino]benzamide] |
| 1.26 to 3.98 nM | 1.26 to 3.98 | CCN(CC)CC(=O)N1CCc2cc(OC)c(Nc3nc(Nc4cccc(F)c4C(N)=O)c4cc[nH]c4n3)cc21 [Example 136, 2-[(2-{[1-(N,N-diethylglycyl)-5-(methyloxy)-2,3-dihydro-1H-indol-6-yl]amino}-1H-pyrrolo[2,3-d]pyrimidin-4-yl)amino]-6-fluorobenzamide] |
| 0.251 to 1 nM and 1.26 to 3.98 nM | 0.251 to 1 | CNC(=O)c1c(F)cccc1Nc1nc(Nc2cc(NC(=O)CN(C)C)ccc2OC)nc2[nH]ccc12 [Example 245, 2-[(2-{[5-[(N,N-dimethylglycyl)amino]-2-(methyloxy)phenyl]amino}-1H-pyrrolo[2,3-d]pyrimidin-4-yl)amino]-6-fluoro-N-methylbenzamide] |
| 0.251 to 1 nM | 0.251 to 1 | CCCN1CCC=C(c2ccc(Nc3nc(Nc4cc(F)ccc4C(N)=O)c4cc[nH]c4n3)c(OC)c2)C1 [Example 70, 4-fluoro-2-[(2-{[2-(methyloxy)-4-(1-propyl-1,2,5,6-tetrahydro-3-pyridinyl)phenyl]amino}-1H-pyrrolo[2,3-d]pyrimidin-4-yl)amino]benzamide] |
| 1.26 to 3.98 nM | 0.251 to 1 | COc1cc(N2CCN(C(C)C)CC2)ccc1Nc1nc(Nc2ccc(F)c(F)c2C(N)=O)c2cc[nH]c2n1 [Example 94, 2,3-difluoro-6-[(2-{[4-[4-(1-methylethyl)-1-piperazinyl]-2-(methyloxy)phenyl]amino}-1H-pyrrolo[2,3-d]pyrimidin-4-yl)amino]benzamide] |
| 1.26 to 3.98 nM | 0.251 to 1 | CNC(=O)c1c(F)cccc1Nc1nc(Nc2cc3c(cc2OC)CCN3C(=O)CN(C)C)nc2[nH]cc(F)c12 [Example 253, 2-[(2-{[1-(N,N-dimethylglycyl)-5-(methyloxy)-2,3-dihydro-1H-indol-6-yl]amino}-5-fluoro-1H-pyrrolo[2,3-d]pyrimidin-4-yl)amino]-6-fluoro-N-methylbenzamide] |
| 1.26 to 3.98 nM | 1.26 to 3.98 | CNC(=O)c1c(F)cccc1Nc1nc(Nc2cc3c(cc2OC)N(C(=O)CN(C)C)CC3)nc2[nH]ccc12 [Example 198, 2-[(2-{[1-(N,N-dimethylglycyl)-6-(methyloxy)-2,3-dihydro-1H-indol-5-yl]amino}-1H-pyrrolo[2,3-d]pyrimidin-4-yl)amino]-6-fluoro-N-methylbenzamide] |
| 0.251 to 1 nM | 0.251 to 1 | COc1cc(C2=CCN(C(C)C)CC2)ccc1Nc1nc(Nc2cc(F)ccc2C(N)=O)c2cc[nH]c2n1 [Example 72, 4-fluoro-2-[(2-{[4-[1-(1-methylethyl)-1,2,3,6-tetrahydro-4-pyridinyl]-2-(methyloxy)phenyl]amino}-1H-pyrrolo[2,3-d]pyrimidin-4-yl)amino]benzamide] |
| 0.251 to 1 nM | 1.26 to 3.98 | COc1cc(N2CCC(N3CC[C@@H](F)C3)CC2)ccc1Nc1nc(Nc2cc(F)ccc2C(N)=O)c2cc[nH]c2n1 [Example 76, 4-fluoro-2-[(2-{[4-{4-[(3R)-3-fluoro-1-pyrrolidinyl]-1-piperidinyl}-2-(methyloxy)phenyl]amino}-1H-pyrrolo[2,3-d]pyrimidin-4-yl)amino]benzamide] |
| 0.251 to 1 nM | 0.251 to 1 | COc1cc(N2CCC(N3CCN(S(C)(=O)=O)CC3)CC2)ccc1Nc1nc(Nc2cccc(F)c2C(N)=O)c2cc[nH]c2n1 [Example 113, 2-fluoro-6-({2-[(2-(methyloxy)-4-{4-[4-(methylsulfonyl)-1-piperazinyl]-1-piperidinyl}phenyl)amino]-1H-pyrrolo[2,3-d]pyrimidin-4-yl}amino)benzamide] |
| 1.26 to 3.98 nM | 1.26 to 3.98 | CCC(C)N1CCc2cc(OC)c(Nc3nc(Nc4cccc(F)c4C(N)=O)c4cc[nH]c4n3)cc2C1 (stereo not drawn) [Example 237, 2-fluoro-6-[(2-{[6-(methyloxy)-2-(1-methylpropyl)-1,2,3,4-tetrahydro-7-isoquinolinyl]amino}-1H-pyrrolo[2,3-d]pyrimidin-4-yl)amino]benzamide] |
| 1.26 to 3.98 nM | 1.26 to 3.98 | COc1cc2c(cc1Nc1nc(Nc3cc(F)cc(F)c3C(=O)NCC(C)C)c3cc[nH]c3n1)N(C(=O)CN(C)C)CC2 [Example 154, 2-[(2-{[1-(N,N-dimethylglycyl)-5-(methyloxy)-2,3-dihydro-1H-indol-6-yl]amino}-1H-pyrrolo[2,3-d]pyrimidin-4-yl)amino]-4,6-difluoro-N-(2-methylpropyl)benzamide] |
